Experimental data as given in patent US20240327421A1 (Marquette University, priority 2017, published 2024).
“And” between values parts separate entries of the source, which are not always exact repeats. Identical values can stand only once. One block for each compound: values may come before it.

Key:
ERα [1] = molecular target: T1, ERα (Homo sapiens, UniProt P03372); assay: Cell-based luciferase reporter assay, full length ERα, agonist mode; settings: 22 h
T1 construct: employs a full length and native ER (comprised of an ER LBD and an ER DBD)
T1 sequence (P03372 1-595): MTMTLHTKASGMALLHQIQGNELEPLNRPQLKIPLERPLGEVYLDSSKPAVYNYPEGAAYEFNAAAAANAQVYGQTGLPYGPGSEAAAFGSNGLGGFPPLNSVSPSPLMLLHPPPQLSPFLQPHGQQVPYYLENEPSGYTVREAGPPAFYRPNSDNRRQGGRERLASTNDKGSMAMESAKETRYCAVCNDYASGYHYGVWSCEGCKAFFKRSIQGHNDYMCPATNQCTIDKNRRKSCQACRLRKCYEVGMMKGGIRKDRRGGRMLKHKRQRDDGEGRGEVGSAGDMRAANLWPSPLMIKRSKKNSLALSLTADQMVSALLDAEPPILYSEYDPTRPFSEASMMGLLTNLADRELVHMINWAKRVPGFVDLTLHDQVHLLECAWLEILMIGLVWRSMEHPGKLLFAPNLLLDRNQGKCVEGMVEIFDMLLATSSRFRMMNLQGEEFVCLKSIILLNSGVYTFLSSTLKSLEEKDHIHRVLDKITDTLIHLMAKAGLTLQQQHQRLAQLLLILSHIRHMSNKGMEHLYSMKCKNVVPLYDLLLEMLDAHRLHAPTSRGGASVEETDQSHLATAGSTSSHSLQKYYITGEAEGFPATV

ERα [2] = molecular target: T1, ERα; assay: Cell-based luciferase reporter assay, full length ERα, antagonist mode
[3] = molecular target: T2, human ER Beta ligand-binding domain (LBD) (Homo sapiens, UniProt Q92731); assay: TR-FRET competitive binding assay, ERβ LBD; settings: displacement of fluorescent tracer from ERβ LBD
T2 construct: purchased Thermo Fisher Scientific

ovariectomized mice = assay: Peripheral tissue pathology (H&E of liver, kidney, heart); assay type: in vivo; settings: 24 h after single IP injection; 0.5 or 5 mg/kg ISP358-2, 0.05 mg/kg DPN
Procedure: Assessment of Potential Peripheral Pathology. To assess possible toxicity of ISP358-2 treatment to peripheral organs, ovariectomized mice received a single intraperitoneal injection of vehicle or ISP358-2, and liver, kidney, and heart tissues were collected 24 hours later. […] Tissues were fixed in 10% formalin buffered solution for 24 hours. Twenty specimens were processed and analyzed. Each specimen contained three pieces of tissue. The tissues from each animal was transferred to a labeled cassette and processed on an automated tissue processor following standard procedures. The tissues were then embedded in paraffin wax. No specific orientation of the tissue was performed. Four-micron sections were cut from each paraffin block and placed onto a slide. The slides were then stained using hematoxylin and cosin (H&E) on an automated stainer (FIGS. 13A-13L). The slides were then examined by a pathologist (ACM) who is board certified in anatomical pathology by the American Board of Pathology. All specimens contained three tissue samples corresponding to liver, kidney, and heart. In some instances, portions of adjacent tissues were also present. […] For heart, the myocytes and coronary vessels were examined, (2) evidence of inflammation was evaluated including hepatitis, glomerulonephritis, interstitial nephritis, and myocarditis, and (3) evidence of ischemic changes was examined. […]

[4] = full length ERα, read-out: ERα agon. IC50
[5] = inhibition of estradiol-induced transcription, read-out: ERα antagon. IC50

T2 sequence (Q92731 264-498 limits assumed): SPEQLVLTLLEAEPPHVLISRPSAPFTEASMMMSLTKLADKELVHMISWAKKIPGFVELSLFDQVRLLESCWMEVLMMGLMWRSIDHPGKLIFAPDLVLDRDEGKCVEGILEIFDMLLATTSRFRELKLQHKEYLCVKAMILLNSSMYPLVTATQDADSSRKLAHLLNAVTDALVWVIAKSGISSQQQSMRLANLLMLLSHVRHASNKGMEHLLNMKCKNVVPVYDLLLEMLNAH

SMILES: OCC1CC=C(c2ccc(O)cc2)CC1 (racemic) [Compound 18, 4′-(Hydroxymethyl)-2′,3′,4′,5′-tetrahydro-[1,1′-biphenyl]-4-ol]
IC50 (ERα [1]; [4]): > 20 µM
IC50 (ERα [2]; [5]): > 10 µM

SMILES: OCC1(O)CCC(c2ccc(O)cc2)CC1 (single isomer, unassigned) [Compound 12, 4-(4-Hydroxy-4-(hydroxymethyl)cyclohexyl) phenol]
IC50 [3]: 2.7 µM

SMILES: OCC1CCC(c2ccc(O)cc2)CC1 (stereo not drawn) [15:16 (3:2), 4-(4-(Hydroxymethyl)cyclohexyl) phenol]
IC50 (ERα [1]; ERα agon. IC50, full length ERα): > 100 µM
IC50 (ERα [2]): > 10 µM

SMILES: C=C1CCC(c2ccc(O)c(/C=N/O)c2)CC1 [Compound 10, 2-Hydroxy-5-(4-methylenecyclohexyl) benzaldehyde oxime]
IC50 [3]: 0.225 ± 0.094 µM

SMILES: Oc1ccc([C@]23CC[C@H](CC2)CO3)cc1 [Compound 17, 1-(4-Hydroxyphenyl)-2-oxabicyclo [2.2.2] octane]
IC50 [3]: 0.25 ± 0.056 µM

SMILES: OCC=C1CCC(c2ccc(O)cc2)CC1 (stereo not drawn) [Compound 24, 4-(4′-Hydroxyphenyl) (2-hydroxyethylidene) cyclohexane]
IC50 [3]: 0.676 µM
IC50 ([3]; listed as (±)-24): 0.68 ± 0.11 µM

SMILES: OCCC1CCC(c2ccc(O)cc2)CC1 (stereo not drawn) [Compound 25, 4-[4-(2-Hydroxyethyl)cyclohexyl] phenol]
IC50 (ERα [1]; [4]): > 50 µM
IC50 (ERα [2]; [5]): > 10 µM

SMILES: N#CC(Cc1ccc(O)cc1)c1ccc(O)cc1 (stereo not drawn) [DPN, 2,3-bis(4-hydroxyphenyl)-propionitrile, reference compound]
histological abnormalities / peripheral toxicity in liver, kidney, heart (ovariectomized mice): Histological abnormalities were not detected

Continued, values first:

IC50 (ERα [1]; [4]): > 10 µM
IC50 (ERα [2]; [5]): > 10 µM
SMILES: CC1CCC(c2ccc(O)cc2)CC1 (mixture of isomers) [Compound 8, 4-(4-Methylcyclohexyl) phenol]

IC50 [3]: 19 µM
SMILES: O=C1CCC(c2ccc(O)cc2)CC1 [Compound 1, 4-(4-hydroxyphenyl) cyclohexanone]

IC50 [3]: 7.25 µM and 7.52 µM
SMILES: Oc1ccc([C@H]2CC[C@H](O)CC2)cc1 [Compound 2, trans-4-(4-Hydroxycyclohexyl) phenol]

IC50 [3]: 6.29 µM
SMILES: C[C@]1(O)CC[C@@H](c2ccc(O)cc2)CC1 [Compound 3, 4-(4-Hydroxy-4-methylcyclohexyl) phenol]

IC50 [3]: 1.57 µM
SMILES: ON=C1CCC(c2ccc(O)cc2)CC1 (stereo not drawn) [Compound 4, 4-(4-Hydroxyphenyl) cyclohexanone oxime]

IC50 (ERα [1]; [4]): > 10 µM
IC50 (ERα [2]; [5]): > 10 µM
SMILES: C=C1CCC(c2ccc(O)cc2)CC1 [Compound 7, 4-(4-Hydroxyphenyl) methylenecyclohexane]

IC50 [3]: 1 µM
SMILES: C=C1CCC(c2ccc(O)c(C=O)c2)CC1 [Compound 9, 2-Hydroxy-5-(4-methylenecyclohexyl) benzaldehyde]
